The source of these data is patent US10112907B2, “Substituted indazoles for treating tendon and/or ligament injuries” (NOVARTIS AG, priority 2016, dated 2018).

The EC50 is the midpoint of the concentration-response curve.

The subject of this assay is Scleraxis (Scx) gene transcriptional activation in TT-D6 Scx-luciferase (ScxL) cell line. The experiment in a line: SCX-LUC in vitro assay (Scx-luciferase reporter). The note with it: Mus musculus, 96 h; Table 3; four days; read-out: Scx-Luc (EC50 μM). The class given is cell-based. Background: Reporter assays use an easily measured gene product as a stand-in for the process of interest.

Regarding `Nc1n[nH]c2ccc(-c3ccc(S(=O)(=O)N4CC(F)(F)C[C@H]4CO)cc3Cl)c(F)c12` [Example 46, (S)-(1-((4-(3-amino-4-fluoro-1H-indazol-5-yl)-3-chlorophenyl)sulfonyl)-4,4-difluoropyrrolidin-2-yl)methanol], the EC50 was determined as 1.05 µM.

In the case of `Cc1cc(-c2ccc3[nH]nc(N)c3c2C)ccc1S(=O)(=O)N1CC(F)(F)C[C@H]1CO` [Example 91, (S)-(1-((4-(3-amino-4-methyl-1H-indazol-5-yl)-2-methylphenyl)sulfonyl)-4,4-difluoropyrrolidin-2-yl)methanol], the EC50 came out at 2.91 µM.

As to `Cc1cc(S(=O)(=O)NC2CC(F)(F)C2)ccc1-c1ccc2[nH]nc(N)c2c1C` [Example 24, 4-(3-amino-4-methyl-1H-indazol-5-yl)-N-(3,3-difluorocyclobutyl)-3-methylbenzenesulfonamide], the EC50 was 0.366 µM.

In the case of `Cc1cc(S(=O)(=O)N2CC(C#N)C2)ccc1-c1ccc2[nH]nc(N)c2c1C` [Example 22, 1-((4-(3-amino-4-methyl-1H-indazol-5-yl)-3-methylphenyl)sulfonyl)azetidine-3-carbonitrile], the EC50 stood at 0.879 µM.

Regarding `Nc1n[nH]c2ccc(-c3ccc(S(=O)(=O)N4CC(F)(F)C[C@H]4CO)cc3F)c(F)c12` [Example 61, (S)-(1-((4-(3-amino-4-fluoro-1H-indazol-5-yl)-3-fluorophenyl)sulfonyl)-4,4-difluoropyrrolidin-2-yl)methanol], the EC50 was 1.5 µM.

`Cc1cc(S(=O)(=O)N2CCC(F)(F)C2)ccc1-c1ccc2[nH]nc(N)c2c1C` [Example 77, 5-(4-((3,3-difluoropyrrolidin-1-yl)sulfonyl)-2-methylphenyl)-4-methyl-1H-indazol-3-amine]: the EC50 was 0.692 µM.

For `Cc1c(-c2ccc(S(=O)(=O)N3CCC(O)C3)cc2F)ccc2[nH]nc(N)c12` (stereo not shown) [Example 3, 1-((4-(3-amino-4-methyl-1H-indazol-5-yl)-3-fluorophenyl)sulfonyl)pyrrolidin-3-ol], the EC50 was 2.83 µM.

With `Cc1cc(S(=O)(=O)N2CCC[C@H]2C(C)O)ccc1-c1ccc2[nH]nc(N)c2c1C` (stereo partly drawn) [Example 60, 1-((S)-1-((4-(3-amino-4-methyl-1H-indazol-5-yl)-3-methylphenyl)sulfonyl)pyrrolidin-2-yl)ethan-1-ol], the EC50 came to 1.61 µM.

`Cc1cc(S(=O)(=O)N[C@@H]2CCC[C@@H](C#N)C2)ccc1-c1ccc2[nH]nc(N)c2c1C` [Example 26, 4-(3-amino-4-methyl-1H-indazol-5-yl)-N-((1R,3R)-3-cyanocyclohexyl)-3-methylbenzenesulfonamide]: the EC50 came to 0.745 µM.

`Cc1cc(S(=O)(=O)N[C@@H]2CC[C@H](O)C2)ccc1-c1ccc2[nH]nc(N)c2c1C` [Example 35, 4-(3-amino-4-methyl-1H-indazol-5-yl)-N-((1R,3S)-3-hydroxycyclopentyl)-3-methylbenzenesulfonamide]: the EC50 turned out to be 1.52 µM.

Consider `Cc1cc(S(=O)(=O)N2CC(F)(F)C[C@H]2CO)ccc1-c1ccc2[nH]nc(N)c2c1F` [Example 44, (S)-(1-((4-(3-amino-4-fluoro-1H-indazol-5-yl)-3-methylphenyl)sulfonyl)-4,4-difluoropyrrolidin-2-yl)methanol], for which the EC50 was determined as 1.19 µM.

For `Cc1cc(S(=O)(=O)N2CC(C)(O)C2)ccc1-c1ccc2[nH]nc(N)c2c1C` [Example 13, 1-((4-(3-amino-4-methyl-1H-indazol-5-yl)-3-methylphenyl)sulfonyl)-3-methylazetidin-3-ol], the EC50 was 2.33 µM.

`Cc1cc(S(=O)(=O)N2CCC(C#N)CC2)ccc1-c1ccc2[nH]nc(N)c2c1C` [Example 23, 1-((4-(3-amino-4-methyl-1H-indazol-5-yl)-3-methylphenyl)sulfonyl)piperidine-4-carbonitrile]: the EC50 came out at 1.85 µM.

Take `Cc1c(-c2ccc(S(=O)(=O)N3CC(C)(C)C3)cc2Cl)ccc2[nH]nc(N)c12` [Example 1, 5-(2-chloro-4-((3,3-dimethylazetidin-1-yl)sulfonyl)phenyl)-4-methyl-1H-indazol-3-amine]: the EC50 amounted to 0.773 µM.

`Cc1cc(S(=O)(=O)N2CCC(F)(F)CC2)ccc1-c1ccc2[nH]nc(N)c2c1C` [Example 80, 5-(4-((4,4-difluoropiperidin-1-yl)sulfonyl)-2-methylphenyl)-4-methyl-1H-indazol-3-amine]: the EC50 worked out at 2.53 µM.

`Cc1c(-c2ccc(S(=O)(=O)NC3CC(F)(F)C3)cc2Cl)ccc2[nH]nc(N)c12` [Example 68, 4-(3-amino-4-methyl-1H-indazol-5-yl)-3-chloro-N-(3,3-difluorocyclobutyl)benzenesulfonamide]: the EC50 stood at 1.86 µM.

Turning to `Cc1cc(S(=O)(=O)N2CC(F)=C[C@H]2CO)ccc1-c1ccc2[nH]nc(N)c2c1C` [Example 33, (S)-(1-((4-(3-amino-4-methyl-1H-indazol-5-yl)-3-methylphenyl)sulfonyl)-4-fluoro-2,5-dihydro-1H-pyrrol-2-yl)methanol], the EC50 worked out at 0.17 µM.

Consider `Cc1cc(S(=O)(=O)N2C[C@@H](F)[C@@H](F)C2)ccc1-c1ccc2[nH]nc(N)c2c1C` [Example 82, Meso-5-(4-(((3R,4S)-3,4-difluoropyrrolidin-1-yl)sulfonyl)-2-methylphenyl)-4-methyl-1H-indazol-3-amine], for which the EC50 was found to be 0.524 µM.

On to `Cc1cc(S(=O)(=O)N[C@H]2CCC[C@]2(C)O)ccc1-c1ccc2[nH]nc(N)c2c1C` [Example 58, 4-(3-amino-4-methyl-1H-indazol-5-yl)-N-((1S,2S)-2-hydroxy-2-methylcyclopentyl)-3-methylbenzenesulfonamide], for which the EC50 worked out at 1.33 µM.

For the compound `Nc1n[nH]c2ccc(-c3ccc(S(=O)(=O)N[C@H]4C[C@](O)(C(F)(F)F)C4)cc3Cl)c(Cl)c12` [Example 64, 4-(3-amino-4-chloro-1H-indazol-5-yl)-3-chloro-N-((1s,3s)-3-hydroxy-3-(trifluoromethyl)cyclobutyl)benzenesulfonamide], the EC50 came to 0.474 µM.

Turning to `COc1c(-c2ccc(S(=O)(=O)N3CC(F)(F)C[C@H]3CO)cc2C)ccc2[nH]nc(N)c12` [Example 85, (S)-(1-((4-(3-amino-4-methoxy-1H-indazol-5-yl)-3-methylphenyl)sulfonyl)-4,4-difluoropyrrolidin-2-yl)methanol], the EC50 stood at 1.79 µM.

For the compound `Cc1cc(S(=O)(=O)N2CC(F)(F)C[C@H]2C(N)=O)ccc1-c1ccc2[nH]nc(N)c2c1C` [Example 81, (S)-1-((4-(3-amino-4-methyl-1H-indazol-5-yl)-3-methylphenyl)sulfonyl)-4,4-difluoropyrrolidine-2-carboxamide], the EC50 was found to be 0.372 µM.

For `COc1c(-c2ccc(S(=O)(=O)N3CC(F)(F)C[C@H]3CO)cc2Cl)ccc2[nH]nc(N)c12` [Example 86, (S)-(1-((4-(3-amino-4-methoxy-1H-indazol-5-yl)-3-chlorophenyl)sulfonyl)-4,4-difluoropyrrolidin-2-yl)methanol], the EC50 stood at 0.731 µM.

As to `Cc1c(-c2ccc(S(=O)(=O)N3CC[C@@H](O)C3)cc2Cl)ccc2[nH]nc(N)c12` [Example 2, (R)-1-((4-(3-amino-4-methyl-1H-indazol-5-yl)-3-chlorophenyl)sulfonyl)pyrrolidin-3-ol], the EC50 came out at 0.908 µM.

As for `Cc1cc(S(=O)(=O)N2CCC[C@@H]2CO)ccc1-c1ccc2[nH]nc(N)c2c1C` [Example 20, (R)-(1-((4-(3-amino-4-methyl-1H-indazol-5-yl)-3-methylphenyl)sulfonyl)pyrrolidin-2-yl)methanol], the EC50 amounted to 0.723 µM.

Regarding `Cc1cc(S(=O)(=O)N[C@@H]2CCC[C@@H]2O)ccc1-c1ccc2[nH]nc(N)c2c1Cl` [Example 29, 4-(3-amino-4-chloro-1H-indazol-5-yl)-N-((1R,2S)-2-hydroxycyclopentyl)-3-methylbenzenesulfonamide], the EC50 was 0.277 µM.

As to `COc1c(-c2ccc(S(=O)(=O)N3CC(F)(F)C[C@H]3CO)cc2F)ccc2[nH]nc(N)c12` [Example 41, (S)-(1-((4-(3-amino-4-methoxy-1H-indazol-5-yl)-3-fluorophenyl)sulfonyl)-4,4-difluoropyrrolidin-2-yl)methanol], the EC50 is 1.33 µM.

`Cc1cc(S(=O)(=O)N[C@]2(C)C[C@H](O)C2)ccc1-c1ccc2[nH]nc(N)c2c1C` [Example 36, 4-(3-amino-4-methyl-1H-indazol-5-yl)-N-((1s,3s)-3-hydroxy-1-methylcyclobutyl)-3-methylbenzenesulfonamide]: the EC50 was 0.806 µM.

Take `Cc1cc(S(=O)(=O)N2CC(O)C2)ccc1-c1ccc2[nH]nc(N)c2c1C` [Example 11, 1-((4-(3-amino-4-methyl-1H-indazol-5-yl)-3-methylphenyl)sulfonyl)azetidin-3-ol]: the EC50 amounted to 4.13 µM.

`Cc1cc(S(=O)(=O)N2CC(F)(F)C[C@@H]2CO)ccc1-c1ccc2[nH]nc(N)c2c1C` [Example 88, (R)-(1-((4-(3-amino-4-methyl-1H-indazol-5-yl)-3-methylphenyl)sulfonyl)-4,4-difluoropyrrolidin-2-yl)methanol]: the EC50 was 0.22 µM.

Consider `Cc1cc(S(=O)(=O)N2CCC[C@H]2CO)ccc1-c1ccc2[nH]nc(N)c2c1Cl` [Example 28, (S)-(1-((4-(3-amino-4-chloro-1H-indazol-5-yl)-3-methylphenyl)sulfonyl)pyrrolidin-2-yl)methanol], for which the EC50 was 0.436 µM.

As to `Nc1n[nH]c2ccc(-c3ccc(S(=O)(=O)N4CC(F)(F)C[C@H]4CO)cc3Cl)c(Cl)c12` [Example 53, (S)-(1-((4-(3-amino-4-chloro-1H-indazol-5-yl)-3-chlorophenyl)sulfonyl)-4,4-difluoropyrrolidin-2-yl)methanol], the EC50 was found to be 0.74 µM.

On to `Cc1cc(S(=O)(=O)N2C[C@H](F)C[C@H]2CO)ccc1-c1ccc2[nH]nc(N)c2c1C` [Example 87, ((2S,4R)-1-((4-(3-amino-4-methyl-1H-indazol-5-yl)-3-methylphenyl)sulfonyl)-4-fluoropyrrolidin-2-yl)methanol], for which the EC50 turned out to be 0.288 µM.

Take `Cc1cc(S(=O)(=O)N[C@@H]2CCCC[C@@H]2O)ccc1-c1ccc2[nH]nc(N)c2c1C` [Example 17, 4-(3-amino-4-methyl-1H-indazol-5-yl)-N-((1R,2S)-2-hydroxycyclohexyl)-3-methylbenzenesulfonamide]: the EC50 is 4.8 µM.
